Results taken from patent US8410161B2, “Thioxanthone ring system derivatives” (National Defense Medical Center, priority 2010, dated 2013).

How the values were obtained:
CAKI-1 = test: NCI in vitro DTP human cell line screen, CAKI-1; format: cell-based; settings: Renal Cancer, 1.00E−5 Molar
Description: (§1) Then, a cell toxicity assay of the cancer lines made by National Cancer Institute will be discussed as follows. The cell toxicity assay is performed by choosing ten compounds (existing certification numbers) from the 59 compounds disclosed in the present invention first.

HS 578-T = test: NCI in vitro DTP human cell line screen, HS 578-T; format: cell-based; settings: Breast Cancer, 1.00E−5 Molar
Description: as §1

RXF 393 = test: NCI in vitro DTP human cell line screen, RXF 393; format: cell-based; settings: Renal Cancer, 1.00E−5 Molar
Description: as §1

OVCAR-4 = test: NCI in vitro DTP human cell line screen, OVCAR-4; format: cell-based; settings: Ovarian Cancer, 1.00E−5 Molar
Description: as §1

BT-549 = test: NCI in vitro DTP human cell line screen, BT-549; format: cell-based; settings: Breast Cancer, 1.00E−5 Molar
Description: as §1

OVCAR-8 = test: NCI in vitro DTP human cell line screen, OVCAR-8; format: cell-based; settings: Ovarian Cancer, 1.00E−5 Molar
Description: as §1

UO-31 = test: NCI in vitro DTP human cell line screen, UO-31; format: cell-based; settings: Renal Cancer, 1.00E−5 Molar
Description: as §1

HOP-62 = test: NCI in vitro DTP human cell line screen, HOP-62; format: cell-based; settings: Non-Small Cell Lung Cancer, 1.00E−5 Molar
Description: as §1

SW-620 = test: NCI in vitro DTP human cell line screen, SW-620; format: cell-based; settings: Colon Cancer, 1.00E−5 Molar
Description: as §1

HOP-92 = test: NCI in vitro DTP human cell line screen, HOP-92; format: cell-based; settings: Non-Small Cell Lung Cancer, 1.00E−5 Molar
Description: as §1

MCF7 = test: NCI in vitro DTP human cell line screen, MCF7; format: cell-based; settings: Breast Cancer, 1.00E−5 Molar
Description: as §1

HCT-15 = test: NCI in vitro DTP human cell line screen, HCT-15; format: cell-based; settings: Colon Cancer, 1.00E−5 Molar
Description: as §1

MALME-3M = test: NCI in vitro DTP human cell line screen, MALME-3M; format: cell-based; settings: Melanoma, 1.00E−5 Molar
Description: as §1

HCT-116 = test: NCI in vitro DTP human cell line screen, HCT-116; format: cell-based; settings: Colon Cancer, 1.00E−5 Molar
Description: as §1

HL-60(TB) = test: NCI in vitro DTP human cell line screen, HL-60(TB); format: cell-based; settings: Leukemia, 1.00E−5 Molar
Description: as §1

MDA-MB-435 = test: NCI in vitro DTP human cell line screen, MDA-MB-435; format: cell-based; settings: Melanoma, 1.00E−5 Molar
Description: as §1

HT29 = test: NCI in vitro DTP human cell line screen, HT29; format: cell-based; settings: Colon Cancer, 1.00E−5 Molar
Description: as §1

NCI-H226 = test: NCI in vitro DTP human cell line screen, NCI-H226; format: cell-based; settings: Non-Small Cell Lung Cancer, 1.00E−5 Molar
Description: as §1

SK-MEL-2 = test: NCI in vitro DTP human cell line screen, SK-MEL-2; format: cell-based; settings: Melanoma, 1.00E−5 Molar
Description: as §1

NCI-H23 = test: NCI in vitro DTP human cell line screen, NCI-H23; format: cell-based; settings: Non-Small Cell Lung Cancer, 1.00E−5 Molar
Description: as §1

PC-3 = test: NCI in vitro DTP human cell line screen, PC-3; format: cell-based; settings: Prostate Cancer, 1.00E−5 Molar
Description: as §1

T-47D = test: NCI in vitro DTP human cell line screen, T-47D; format: cell-based; settings: Breast Cancer, 1.00E−5 Molar
Description: as §1

60 cancer lines = test: NCI cell toxicity assay of 60 cancer lines, whole panel summary; format: cell-based, human; settings: mean over all cell lines; 1.00E−5 Molar
Description: as §1

SNB-75 = test: NCI in vitro DTP human cell line screen, SNB-75; format: cell-based; settings: CNS Cancer, 1.00E−5 Molar
Description: as §1

MDA-MB-468 = test: NCI in vitro DTP human cell line screen, MDA-MB-468; format: cell-based; settings: Breast Cancer, 1.00E−5 Molar
Description: as §1

NCI-H322M = test: NCI in vitro DTP human cell line screen, NCI-H322M; format: cell-based; settings: Non-Small Cell Lung Cancer, 1.00E−5 Molar
Description: as §1

MOLT-4 = test: NCI in vitro DTP human cell line screen, MOLT-4; format: cell-based; settings: Leukemia, 1.00E−5 Molar
Description: as §1

NCI/ADR-RES = test: NCI in vitro DTP human cell line screen, NCI/ADR-RES; format: cell-based; settings: Ovarian Cancer, 1.00E−5 Molar
Description: as §1

UACC-257 = test: NCI in vitro DTP human cell line screen, UACC-257; format: cell-based; settings: Melanoma, 1.00E−5 Molar
Description: as §1

SF-268 = test: NCI in vitro DTP human cell line screen, SF-268; format: cell-based; settings: CNS Cancer, 1.00E−5 Molar
Description: as §1

OVCAR-5 = test: NCI in vitro DTP human cell line screen, OVCAR-5; format: cell-based; settings: Ovarian Cancer, 1.00E−5 Molar
Description: as §1

IGROV1 = test: NCI in vitro DTP human cell line screen, IGROV1; format: cell-based; settings: Ovarian Cancer, 1.00E−5 Molar
Description: as §1

SK-OV-3 = test: NCI in vitro DTP human cell line screen, SK-OV-3; format: cell-based; settings: Ovarian Cancer, 1.00E−5 Molar
Description: as §1

U251 = test: NCI in vitro DTP human cell line screen, U251; format: cell-based; settings: CNS Cancer, 1.00E−5 Molar
Description: as §1

KM12 = test: NCI in vitro DTP human cell line screen, KM12; format: cell-based; settings: Colon Cancer, 1.00E−5 Molar
Description: as §1

TK-10 = test: NCI in vitro DTP human cell line screen, TK-10; format: cell-based; settings: Renal Cancer, 1.00E−5 Molar
Description: as §1

SF-539 = test: NCI in vitro DTP human cell line screen, SF-539; format: cell-based; settings: CNS Cancer, 1.00E−5 Molar
Description: as §1

SNB-19 = test: NCI in vitro DTP human cell line screen, SNB-19; format: cell-based; settings: CNS Cancer, 1.00E−5 Molar
Description: as §1

NCI-H522 = test: NCI in vitro DTP human cell line screen, NCI-H522; format: cell-based; settings: Non-Small Cell Lung Cancer, 1.00E−5 Molar
Description: as §1

M14 = test: NCI in vitro DTP human cell line screen, M14; format: cell-based; settings: Melanoma, 1.00E−5 Molar
Description: as §1

SR = test: NCI in vitro DTP human cell line screen, SR; format: cell-based; settings: Leukemia, 1.00E−5 Molar
Description: as §1

LOX IMVI = test: NCI in vitro DTP human cell line screen, LOX IMVI; format: cell-based; settings: Melanoma, 1.00E−5 Molar
Description: as §1

DU145 = test: NCI in vitro DTP human cell line screen, DU145; format: cell-based; settings: Prostate Cancer, 1.00E−5 Molar
Description: as §1

NCI-H460 = test: NCI in vitro DTP human cell line screen, NCI-H460; format: cell-based; settings: Non-Small Cell Lung Cancer, 1.00E−5 Molar
Description: as §1

CCRF-CEM = test: NCI in vitro DTP human cell line screen, CCRF-CEM; format: cell-based; settings: Leukemia, 1.00E−5 Molar
Description: as §1

K562 = test: NCI in vitro DTP human cell line screen, K562; format: cell-based; settings: Leukemia, 1.00E−5 Molar
Description: as §1

ACHN = test: NCI in vitro DTP human cell line screen, ACHN; format: cell-based; settings: Renal Cancer, 1.00E−5 Molar
Description: as §1

SK-MEL-28 = test: NCI in vitro DTP human cell line screen, SK-MEL-28; format: cell-based; settings: Melanoma, 1.00E−5 Molar
Description: as §1

HCC-2998 = test: NCI in vitro DTP human cell line screen, HCC-2998; format: cell-based; settings: Colon Cancer, 1.00E−5 Molar
Description: as §1

SK-MEL-5 = test: NCI in vitro DTP human cell line screen, SK-MEL-5; format: cell-based; settings: Melanoma, 1.00E−5 Molar
Description: as §1

EKVX = test: NCI in vitro DTP human cell line screen, EKVX; format: cell-based; settings: Non-Small Cell Lung Cancer, 1.00E−5 Molar
Description: as §1

SF-295 = test: NCI in vitro DTP human cell line screen, SF-295; format: cell-based; settings: CNS Cancer, 1.00E−5 Molar
Description: as §1

O=c1c2ccccc2sc2c(Cl)c(SCc3ccc(Cl)cc3)ccc12 [No. 26, 4-Chloro-3-(4-chlorobenzylthio)-9H-thioxanthen-9-one]
Growth Percent (CAKI-1): 98.76%
Growth Percent (HS 578-T): 108.61%
Growth Percent (RXF 393): 109.38%
Growth Percent (OVCAR-4): 107.67%
Growth Percent (BT-549): 94.67%
Growth Percent (OVCAR-8): 86.47%
Growth Percent (UO-31): 89.66%
Growth Percent (HOP-62): 89.02%
Growth Percent (SW-620): 105.00%
Growth Percent (HOP-92): 69.89%
Growth Percent (MCF7): 94.48%
Growth Percent (HCT-15): 104.80%
Growth Percent (MALME-3M): 105.22%
Growth Percent (HCT-116): 96.31%
Growth Percent (HL-60(TB)): 105.29%
Growth Percent (MDA-MB-435): 108.59%
Growth Percent (HT29): 103.09%
Growth Percent (NCI-H226): 94.77%
Growth Percent (SK-MEL-2): 90.37%
Growth Percent (NCI-H23): 96.57%
Growth Percent (PC-3): 93.28%
Growth Percent (T-47D): 87.73%
Growth Percent, Mean (60 cancer lines): 99.47%
Growth Percent (SNB-75): 96.90%
Growth Percent (MDA-MB-468): 96.96%
Growth Percent (NCI-H322M): 101.60%
Growth Percent (MOLT-4): 96.00%
Growth Percent (NCI/ADR-RES): 100.89%
Growth Percent (UACC-257): 92.94%
Growth Percent (SF-268): 101.57%
Growth Percent (OVCAR-5): 102.23%
Growth Percent (IGROV1): 104.47%
Growth Percent (SK-OV-3): 97.10%
Growth Percent (U251): 86.21%
Growth Percent (KM12): 107.42%
Growth Percent (TK-10): 100.13%
Growth Percent (SF-539): 96.81%
Growth Percent (SNB-19): 96.85%
Growth Percent (NCI-H522): 81.19%
Growth Percent (M14): 101.01%
Growth Percent (SR): 93.51%
Growth Percent (LOX IMVI): 97.16%
Growth Percent (DU145): 108.56%
Growth Percent (NCI-H460): 106.85%
Growth Percent (CCRF-CEM): 92.28%
Growth Percent (K562): 113.64%
Growth Percent (ACHN): 91.82%
Growth Percent (SK-MEL-28): 114.10%
Growth Percent (HCC-2998): 107.66%
Growth Percent (SK-MEL-5): 101.76%
Growth Percent (EKVX): 110.82%
Growth Percent (SF-295): 112.42%
